Laboratory results as given in ChEMBL document CHEMBL4725294, “Centrally Active Multitarget Anti-Alzheimer Agents Derived from the Antioxidant Lead CR-6” (J Med Chem, 2020).
Activity calls are given as the source filed them. The rule behind the calls is not given here.

Key:
[1] = Stability in rat plasma assessed as parent compound remaining at 10 uM measured after 360 mins by UPLC-MS/MS analysis; assay type: ADME, cell-free; details: read-out: Stabilty
Acetylcholinesterase = Acetylcholinesterase (Homo sapiens, UniProt P22303)
Chain of Acetylcholinesterase (P22303 whole entry): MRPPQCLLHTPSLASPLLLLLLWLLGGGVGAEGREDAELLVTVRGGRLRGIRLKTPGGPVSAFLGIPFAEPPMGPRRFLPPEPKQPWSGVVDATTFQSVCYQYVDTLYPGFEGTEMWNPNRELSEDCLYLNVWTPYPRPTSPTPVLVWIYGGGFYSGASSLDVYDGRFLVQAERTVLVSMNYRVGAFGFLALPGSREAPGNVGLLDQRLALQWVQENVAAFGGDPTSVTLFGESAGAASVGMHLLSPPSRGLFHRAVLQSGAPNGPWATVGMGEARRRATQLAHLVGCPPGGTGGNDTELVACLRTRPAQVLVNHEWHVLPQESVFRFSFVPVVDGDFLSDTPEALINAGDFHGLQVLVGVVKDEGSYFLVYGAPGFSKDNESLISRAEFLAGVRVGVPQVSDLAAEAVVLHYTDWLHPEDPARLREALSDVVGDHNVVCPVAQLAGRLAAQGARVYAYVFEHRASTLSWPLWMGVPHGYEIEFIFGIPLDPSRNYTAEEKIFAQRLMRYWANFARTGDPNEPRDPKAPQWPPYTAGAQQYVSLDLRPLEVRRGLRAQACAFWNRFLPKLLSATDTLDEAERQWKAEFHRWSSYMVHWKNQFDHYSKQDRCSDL
Description: Inhibition of recombinant human AChE expressed in HEK293 cells using acetylthiocholine iodide as substrate preincubated for 15 mins followed by substrate addition by Ellman's method

[2] = Stability in mouse plasma assessed as parent compound remaining at 10 uM measured immediately by UPLC-MS/MS analysis; assay type: ADME, cell-free; details: read-out: Stabilty
[3] = Intrinsic clearance in human liver microsomes assessed per mg protein at 5 uM by UPLC-MS/MS analysis; assay type: ADME, Microsome; details: read-out: CLH
[4] = Acute toxicity in C57BL6/J mouse assessed as ptosis at 15 mg/kg, ip measured after 5 mins; assay type: organism-based; details: in vivo
Mus musculus [5] = test: Antialzheimer activity in APP/PS1 double mutant-transgenic C57BL6/J mouse model assessed as increase in Hmox1 gene expression at 10 mg/kg/day, ip for 4 weeks followed by compound washout and measured after 24 hrs by qPCR analysis; assay type: functional, organism-based
Beta-secretase 1 = Beta-secretase 1 (Homo sapiens, UniProt P56817); test: Inhibition human BACE1 expressed in baculovirus expression system at 5 uM using Panvera peptide as substrate measured after 60 mins by fluorescence assay relative to control; details: 1 h
Chain of Beta-secretase 1 (P56817 whole entry): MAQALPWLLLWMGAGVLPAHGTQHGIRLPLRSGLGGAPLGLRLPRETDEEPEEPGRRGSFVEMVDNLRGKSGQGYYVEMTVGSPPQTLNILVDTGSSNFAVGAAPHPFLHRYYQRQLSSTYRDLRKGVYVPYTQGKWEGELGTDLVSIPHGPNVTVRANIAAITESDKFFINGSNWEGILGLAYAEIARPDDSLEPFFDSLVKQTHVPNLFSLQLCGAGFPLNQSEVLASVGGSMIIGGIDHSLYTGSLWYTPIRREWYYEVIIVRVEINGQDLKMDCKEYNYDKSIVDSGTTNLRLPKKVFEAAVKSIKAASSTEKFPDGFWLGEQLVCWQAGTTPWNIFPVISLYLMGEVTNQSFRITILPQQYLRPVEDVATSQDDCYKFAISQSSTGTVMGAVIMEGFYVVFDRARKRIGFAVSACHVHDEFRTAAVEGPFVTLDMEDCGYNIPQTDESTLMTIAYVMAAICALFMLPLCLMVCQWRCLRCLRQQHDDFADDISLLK

Mus musculus [6] = test: Antialzheimer activity in APP/PS1 double mutant-transgenic C57BL6/J mouse model assessed as reduction in oxidized protein level at 10 mg/kg/day, ip for 4 weeks followed by compound washout and measured after 24 hrs by Western blot analysis; assay type: functional, organism-based
Mus musculus [7] = test: Improvement in memory impairment in APP/PS1 double mutant-transgenic C57BL6/J mouse model assessed as […] at 10 mg/kg/day, ip for 4 weeks followed by compound washout by maze two-object recognition test; assay type: functional, organism-based
[8] = Acute toxicity in C57BL6/J mouse assessed as tremor at 15 mg/kg, ip measured after 5 mins; assay type: organism-based; details: in vivo
[9] = Stability in rat liver microsomes assessed as parent compound remaining at 5 uM measured up to 60 mins by UPLC-MS/MS analysis; assay type: ADME, Microsome; details: read-out: Stabilty
[10] = Drug metabolism in human liver microsomes assessed as N-[8-[(6-chloro-1,2,3,4-tetrahydroacridin-9-yl)amino]octyl]-3-hydroxy-5-(4-methoxy-3,6-dioxo-cyclohexa-1,4-dien-1-yl)-3-methyl-pentanamide formation at 5 uM measured up to 60 mins by UPLC-MS/MS analysis; assay type: ADME, Microsome; details: 1 h
[11] = Stability in mouse plasma assessed as parent compound remaining at 10 uM measured after 180 mins by UPLC-MS/MS analysis; assay type: ADME, cell-free; details: read-out: Stabilty
[12] = Drug metabolism in mouse liver microsomes assessed as N-[8-[(6-chloro-1,2,3,4-tetrahydroacridin-9-yl)amino]octyl]-3-hydroxy-5-(4-methoxy-3,6-dioxo-cyclohexa-1,4-dien-1-yl)-3-methyl-pentanamide formation at 5 uM measured up to 60 mins by UPLC-MS/MS analysis; assay type: ADME, Microsome; details: 1 h
[13] = Drug metabolism in rat liver microsomes assessed as N-[8-[(6-chloro-1,2,3,4-tetrahydroacridin-9-yl)amino]octyl]-3-hydroxy-5-(4-methoxy-3,6-dioxo-cyclohexa-1,4-dien-1-yl)-3-methyl-pentanamide formation at 5 uM measured up to 60 mins by UPLC-MS/MS analysis; assay type: ADME, Microsome; details: 1 h
[14] = Stability in rat plasma assessed as parent compound remaining at 10 uM measured immediately by UPLC-MS/MS analysis; assay type: ADME, cell-free; details: read-out: Stabilty
[15] = Half life in mouse liver microsomes at 5 uM by UPLC-MS/MS analysis; assay type: ADME, Microsome
Cholinesterase = Cholinesterase (Homo sapiens, UniProt P06276)
Chain of Cholinesterase (P06276 whole entry): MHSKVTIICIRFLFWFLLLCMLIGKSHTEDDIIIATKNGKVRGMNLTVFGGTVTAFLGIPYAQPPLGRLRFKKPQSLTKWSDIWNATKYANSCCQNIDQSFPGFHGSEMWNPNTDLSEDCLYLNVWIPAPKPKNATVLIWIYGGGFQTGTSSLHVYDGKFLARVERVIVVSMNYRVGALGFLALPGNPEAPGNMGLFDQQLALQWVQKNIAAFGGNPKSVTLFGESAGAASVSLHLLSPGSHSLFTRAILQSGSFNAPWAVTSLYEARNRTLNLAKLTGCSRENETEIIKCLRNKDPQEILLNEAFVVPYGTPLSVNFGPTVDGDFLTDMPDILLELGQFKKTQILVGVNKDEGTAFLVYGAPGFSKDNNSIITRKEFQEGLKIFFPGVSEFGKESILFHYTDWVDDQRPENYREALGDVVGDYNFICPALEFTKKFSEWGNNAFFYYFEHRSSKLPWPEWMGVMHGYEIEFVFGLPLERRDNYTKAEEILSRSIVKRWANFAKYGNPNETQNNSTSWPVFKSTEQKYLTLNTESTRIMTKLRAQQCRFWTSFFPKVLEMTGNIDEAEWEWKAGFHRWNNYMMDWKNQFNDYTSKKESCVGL
Description: Inhibition of recombinant human BChE using butyrylthiocholine iodide as substrate preincubated for 15 mins followed by substrate addition by Ellman's method

[16] = Stability in mouse plasma assessed as parent compound remaining at 10 uM measured after 360 mins by UPLC-MS/MS analysis; assay type: ADME, cell-free; details: read-out: Stabilty

Structure (SMILES): COc1cc2c(cc1O)CCC(C)(CC(=O)NCCCCCCCCNc1c3c(nc4cc(Cl)ccc14)CCCC3)O2 (centres undefined)
- remaining at 6 h, 10 µM [1]: 98%
- IC50 (Acetylcholinesterase): 3.69 nM
- remaining at 0 min, 10 µM [2]: 100%
- microsomal CLint at 5 µM [3]: 55.2 µL/min/mg
- Activity [4]: Toxic
- Activity (Mus musculus [5]): Active
- inhibition at 5 µM (Beta-secretase 1): 19%
- Activity (Mus musculus [6]): inactive
- Activity (Mus musculus [7]): inactive
- Activity [8]: Toxic
- remaining at 1 h, 5 µM [9]: 36.5%
- Drug metabolism [10]: Metabolite_Detected
- remaining at 3 h, 10 µM [11]: 100%
- Drug metabolism [12]: Metabolite_Detected
- Drug metabolism [13]: Metabolite_Detected
- remaining at 0 min, 10 µM [14]: 100%
- half-life at 5 µM [15]: 50.5 min
- IC50 (Cholinesterase): 170 nM
- remaining at 6 h, 10 µM [16]: 100%
